From patent publication US12172959B2, “Mono- or di-substituted indole derivatives as dengue viral replication inhibitors” (priority 2015, dated 2024)
Like-named read-outs stand apart in the source and are kept apart here.

How the values were obtained:
Vero cells [1] = assay: in vitro; format: cell-based; conditions: African green monkey, 3 days
Description: (§1) The antiviral activity of the compounds of the invention was tested against DENV-1 strain TC974#666 (NCPV; Table 6), DENV-2 strain 16681 (Table 7), DENV-3 strain H87 (NCPV; Table 8) and DENV-4 strains H241 (NCPV; Table 9A) and SG/06K2270DK1/2005 (Eden; Table 9B) in a RT-qPCR assay. Therefore, Vero cells were infected with either DENV-1, or -2, or -3, or -4 in the presence or absence of test compounds. At day 3 post-infection, the cells were lysed and cell lysates were used to prepare cDNA of both a viral target (the 3′UTR of DENV; Table 2) and a cellular reference gene (β-actin, Table 2). Subsequently, a duplex real time PCR was performed on a Lightcycler480 instrument. The generated Cp value is inversely proportional to the amount of RNA expression of these targets. Inhibition of DENV replication by test compound results in a shift of Cp's for the 3′UTR gene. On the other hand, if a test compound is toxic to the cells, a similar effect on β-actin expression will be observed. The comparative ΔΔCp method is used to calculate EC50, which is based on the relative gene expression of the target gene (3′UTR) normalized with the cellular housekeeping gene (β-actin).
(§2) The culture medium consisted of minimal essential medium supplemented with 2% of heat-inactivated fetal calf serum, 0.04% gentamycin (50 mg/mL) and 2 mM of L-glutamine. Vero cells, obtained from ECACC, were suspended in culture medium and 75 μL/well was added in 96-well plates (10000 cells/well), which already contain the antiviral compounds. […] In addition, each plate contains wells which are assigned as virus controls (containing cells and virus in the absence of compound) and cell controls (containing cells in the absence of virus and compound). Once the cells were added in the plates, the plates were incubated in a fully humidified incubator (37° C., 5% CO2) until the next day. Dengue viruses serotype-1, 2, 3 and 4 were diluted in order to obtain a Cp of ˜22-24 in the assay. Therefore, 25 μL of virus suspension was added to all the wells containing test compound and to the wells assigned as virus control. In parallel, 25 μL of culture medium was added to the cell controls. Next, the plates were incubated for 3 days in a fully humidified incubator (37° C., 5% CO2). After 3 days, the supernatant was removed from the wells and the cells were washed twice with ice-cold PBS (˜100 μL). The cell pellets within the 96-well plates were stored at −80° C. for at least 1 day. Next, RNA was extracted using the Cells-to-CT™ lysis kit, according to the manufacturer's guideline (Life Technologies). The cell lysates can be stored at −80° C. or immediately used in the reverse transcription step.
(§3) Using the LightCycler software and an in-house LIMS system, dose response curves for each compound were calculated and the half maximal effective concentration (EC50) and the half maximal cytotoxic concentration (CC50) were determined.

in vitro = format: cell-based; conditions: African green monkey, CC50
Description: as §1, §2, §3

DENV-2 16681 strain = assay: DENV-2 antiviral assay (eGFP fluorescence, Vero cells); format: cell-based, Dengue virus; conditions: DENV-2 16681 eGFP, MOI 0.5, 3 days
Description: The antiviral activity of all the compounds of the invention was tested against the DENV-2 16681 strain which was labeled with enhanced green fluorescent protein (eGPF; Table 1). The culture medium consists of minimal essential medium supplemented with 2% of heat-inactivated fetal calf serum, 0.04% gentamycin (50 mg/mL) and 2 mM of L-glutamine. Vero cells, obtained from ECACC, were suspended in culture medium and 25 μL was added to 384-well plates (2500 cells/well), which already contain the antiviral compounds. Typically, these plates contain a 5-fold serial dilution of 9 dilution steps of the test compound at 200 times the final concentration in 100% DMSO (200 nL). […] Finally, each plate contains wells which are assigned as virus controls (containing cells and virus in the absence of compound), cell controls (containing cells in the absence of virus and compound) and medium controls (containing medium in the absence of cells, virus and compounds). To the wells assigned as medium control, 25 μL of culture medium was added instead of Vero cells. Once the cells were added to the plates, the plates were incubated for 30 minutes at room temperature to allow the cells to distribute evenly within the wells. Next, the plates were incubated in a fully humidified incubator (37° C., 5% CO2) until the next day. Then, DENV-2 strain 16681, labeled with eGFP, was added at a multiplicity of infection (MOI) of 0.5. Therefore, 15 μL of virus suspension was added to all the wells containing test compound and to the wells assigned as virus control. In parallel, 15 μL of culture medium was added to the medium and cell controls. Next, the plates were incubated for 3 days in a fully humidified incubator (37° C., 5% CO2). At the day of the read out, the eGFP fluorescence was measured using an automated fluorescence microscope at 488 nm (blue laser). Using an in-house LIMS system, inhibition dose response curves for each compound were calculated and the half maximal effective concentration (EC50) was determined. Therefore, the percent inhibition (I) for every test concentration is calculated using the following formula: I=100*(ST−SCC)/(SVC−SCC); ST, SCC and SVC are the amount of eGFP signal in the test compound, cell control and virus control wells, respectively. The EC50 represents the concentration of a compound at which the virus replication is inhibited with 50%, as measured by a 50% reduction of the eGFP fluorescent intensity compared to the virus control. The EC50 is calculated using linear interpolation.

Vero cells [2] = conditions: African green monkey
DENV-3 strain H87 = assay: Tetravalent RT-qPCR assay Protocol A, serotype 3; format: cell-based; conditions: Dengue virus, DENV3, 72 h, RT-qPCR serotype 3 H87, Vero cells, day 3
Description: as §1, §2
(§4) In preparation of the reverse transcription step, mix A (table 3A) was prepared and 7.57 μL/well was dispensed in a 96-well plate. After addition of 5 μL of the cell lysates, a five minute denaturation step at 75° C. was performed (table 3B). Afterwards, 7.43 μL of mix B was added (table 3C) and the reverse transcription step was initiated (table 3D) to generate cDNA.
(§5) Finally, a RT-qPCR mix was prepared, mix C (table 4A), and 22.02 μL/well was dispensed in 96-well LightCycler qPCR plates to which 3 μL of cDNA was added and the qPCR was performed according to the conditions in table 4B on a LightCycler 480.
as §3

DENV-2 strain 16681 = assay: Tetravalent RT-qPCR assay Protocol A, serotype 2; format: cell-based; conditions: Dengue virus, DENV2, 72 h; Protocol A, RT-qPCR serotype 2 16681, Vero cells, day 3; read-out: EC50
Description: as §1, §2, §4, §5, §3

DENV-4 strain H241 = assay: Tetravalent RT-qPCR assay Protocol A, serotype 4 H241; format: cell-based; conditions: Dengue virus, DENV4, Vero, 72 h
Description: as §1, §2, §4, §5, §3

DENV-1 strain TC974#666 = assay: Tetravalent RT-qPCR assay Protocol A, serotype 1; format: cell-based; conditions: Dengue virus, DENV1, 72 h, RT-qPCR serotype 1 TC974#666, Vero cells, day 3
Description: as §1, §2, §4, §5, §3

COc1cc(NC(C(=O)c2c[nH]c3cc(OC)c(OC(F)(F)F)cc23)c2ccc(Cl)cc2OC)cc(S(C)(=O)=O)c1 (single isomer, unassigned) [Compound 10A, 2-(4-chloro-2-methoxyphenyl)-2-((3-methoxy-5-(methylsulfonyl)phenyl)amino)-1-(6-methoxy-5-(trifluoromethoxy)-1H-indol-3-yl)ethanone]
CC50 (Vero cells [1]): 1000 nM
CC50 at 3 days (in vitro): 1600 nM
EC50 (DENV-2 16681 strain): 0.12 nM
CC50 (Vero cells [2]): 2600 nM
EC50 (DENV-3 strain H87): 3.7 nM
EC50 (DENV-2 strain 16681): 0.057 nM
EC50 (DENV-4 strain H241): 11 nM
EC50 (DENV-1 strain TC974#666): 0.27 nM
